From patent publication US8604202B2, “Thienopyridone derivatives as AMP-activated protein kinase (AMPK) activators” (Merck Patent GmbH, priority 2008, dated 2013)

Target: T1, AMPK protein (recombinant α1β1γ2) (Homo sapiens, UniProt Q13131+Q9Y478)
T1 construct: made in house; host or cells: E. coli
Assay: AMPK enzymatic activity (Delfia, AMARA peptide)
Type: biochemical
Settings: compound 30 μM vs AMP 30 μM; 125 μM ATP; 30 min room temperature; ratio 90% or higher = direct activator
Description: The following biological test allows the determination of the efficacy of such compounds of formula (I) onto AMPK protein (recombinant α1β1γ2).
Human recombinant AMPK enzyme was expressed in E. Coli and was reactivated in vitro by LKB1 prior to enzyme activity determination.
AMPK enzyme activities were assayed by using A Delfia technology. AMPK enzyme activities were carried out in microtiter plates (50 mM Hepes buffer, pH 7.4 with 125 μM ATP respectively) in the presence of a synthetic peptide substrate (AMARAASAAALARRR, the “AMARA” peptide) and activators in serial dilutions. Reactions were initiated by the addition of AMPK (50-100 ng). Following mixing, the plates were incubated for 30 min at room temperature. Enzyme activity was assayed by using an anti-phosphoserine antibody to measure the quantity of phosphate incorporated into the AMARAA.
Ratio between the % of control (basal activity) of compound of formula (I) at 30 μM and the % of control (basal activity) of AMP (natural substrate) at 30 μM. Compounds of formula (I) in the table II are considered as direct activator of AMPK if the ratio is 90% or higher.

T1 sequence (Q13131 whole entry): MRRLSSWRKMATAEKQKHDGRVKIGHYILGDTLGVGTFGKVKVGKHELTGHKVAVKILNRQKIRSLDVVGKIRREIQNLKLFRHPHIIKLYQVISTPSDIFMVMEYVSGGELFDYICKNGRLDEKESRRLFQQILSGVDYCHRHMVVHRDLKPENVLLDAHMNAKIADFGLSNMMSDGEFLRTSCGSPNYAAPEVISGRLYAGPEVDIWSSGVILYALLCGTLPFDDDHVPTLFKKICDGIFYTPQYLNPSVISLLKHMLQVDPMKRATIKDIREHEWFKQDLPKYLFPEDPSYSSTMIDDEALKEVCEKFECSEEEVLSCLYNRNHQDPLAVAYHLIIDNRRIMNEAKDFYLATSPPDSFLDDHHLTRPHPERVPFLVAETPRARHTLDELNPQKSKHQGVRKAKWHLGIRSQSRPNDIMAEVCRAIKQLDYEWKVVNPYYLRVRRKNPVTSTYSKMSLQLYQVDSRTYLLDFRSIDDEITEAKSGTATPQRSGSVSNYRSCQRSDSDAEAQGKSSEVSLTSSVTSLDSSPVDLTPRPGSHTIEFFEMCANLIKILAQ
T1 sequence (Q9Y478 whole entry): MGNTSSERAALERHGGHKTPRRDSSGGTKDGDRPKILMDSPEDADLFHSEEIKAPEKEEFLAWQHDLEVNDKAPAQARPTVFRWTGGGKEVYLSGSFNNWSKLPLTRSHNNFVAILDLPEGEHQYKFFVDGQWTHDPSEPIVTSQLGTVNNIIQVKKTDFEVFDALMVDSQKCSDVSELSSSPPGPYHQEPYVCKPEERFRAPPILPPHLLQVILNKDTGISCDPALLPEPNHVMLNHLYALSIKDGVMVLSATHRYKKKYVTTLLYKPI
T1 sequence (Q9UGJ0 whole entry partner): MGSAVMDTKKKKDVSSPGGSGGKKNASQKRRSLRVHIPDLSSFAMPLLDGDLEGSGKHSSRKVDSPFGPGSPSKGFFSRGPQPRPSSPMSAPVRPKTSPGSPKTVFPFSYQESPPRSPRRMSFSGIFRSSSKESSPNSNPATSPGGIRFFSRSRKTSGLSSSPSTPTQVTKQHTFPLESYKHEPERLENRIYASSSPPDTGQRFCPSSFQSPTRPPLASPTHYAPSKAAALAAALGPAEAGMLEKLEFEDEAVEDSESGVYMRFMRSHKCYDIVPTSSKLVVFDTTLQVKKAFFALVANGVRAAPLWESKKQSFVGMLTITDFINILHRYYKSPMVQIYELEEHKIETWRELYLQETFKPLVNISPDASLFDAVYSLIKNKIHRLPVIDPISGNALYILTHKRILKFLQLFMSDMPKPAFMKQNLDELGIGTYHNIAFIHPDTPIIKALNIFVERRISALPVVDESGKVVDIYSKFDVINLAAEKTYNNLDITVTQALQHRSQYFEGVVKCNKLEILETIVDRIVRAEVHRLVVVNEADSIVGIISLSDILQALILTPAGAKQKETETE

Row | SMILES | activity: Ratio between the % of control (basal activity) of compound of formula (I) at 30 μM and the % of control (basal activity) of AMP at 30 μM [%]
1 | O=c1[nH]c2scc(-c3ccc(-c4ccc(O)cc4)cc3)c2c(O)c1-c1ccccc1 [Compound 12, 4-hydroxy-3-(4′-hydroxybiphenyl-4-yl)-5-phenyl-6,7-dihydro-thieno[2,3-b]pyridin-6-one] | 139
2 | O=c1[nH]c2scc(-c3ccc(-c4ccccc4O)cc3)c2c(O)c1-c1cccnc1 [Compound 31, 4-hydroxy-3-(2′-hydroxybiphenyl-4-yl)-5-pyridin-3-yl-6,7-dihydro-thieno[2,3-b]pyridin-6-one] | 143
3 | O=c1[nH]c2scc(-c3ccc(-c4cccc(CO)c4)cc3)c2c(O)c1-c1cccnc1 [Compound 39, 4-hydroxy-3-(3′-hydroxymethylbiphenyl-4-yl)-5-pyridin-3-yl-6,7-dihydro-thieno[2,3-b]pyridin-6-one] | 147
4 | O=c1[nH]c2scc(-c3ccc(-c4ccc(F)cc4)cc3)c2c(O)c1-c1cccnc1 [Compound 34, 3-(4′-fluorobiphenyl-4-yl)-4-hydroxy-5-pyridin-3-yl-6,7-dihydro-thieno[2,3-b]pyridin-6-one] | 165
5 | COC(=O)c1ccc(-c2ccc(-c3csc4[nH]c(=O)c(-c5ccncc5)c(O)c34)cc2)cc1 [Compound 25, Methyl 4′-(4-hydroxy-6-oxo-5-pyridin-4-yl-6,7-dihydro-thieno[2,3-b]pyridin-3-yl)biphenyl-4-carboxylate] | 154
6 | O=c1[nH]c2scc(-c3ccc(-c4ccncc4)cc3)c2c(O)c1-c1ccncc1 [Compound 30, 4-hydroxy-5-pyridin-4-yl-3-(4-pyridin-4-ylphenyl)-6,7-dihydro-thieno[2,3-b]pyridin-6-one] | 212
7 | COc1cc(-c2csc3[nH]c(=O)c(-c4ccccc4)c(O)c23)ccc1-c1ccccc1 [Compound 45, 4-hydroxy-3-(2-methoxybiphenyl-4-yl)-5-phenyl-6,7-dihydro-thieno[2,3-b]pyridin-6-one] | 120
8 | O=c1[nH]c2scc(-c3ccc(-c4ccccc4F)cc3)c2c(O)c1-c1cccnc1 [Compound 32, 3-(2′-fluorobiphenyl-4-yl)-4-hydroxy-5-pyridin-3-yl-6,7-dihydro-thieno[2,3-b]pyridin-6-one] | 159
9 | O=c1[nH]c2scc(-c3ccc(-c4ccc(F)cc4O)cc3)c2c(O)c1-c1ccccc1 [Compound 21, 3-(4′-fluoro-2′-hydroxybiphenyl-4-yl)-4-hydroxy-5-phenyl-6,7-dihydro-thieno[2,3-b]pyridin-6-one] | 187
10 | Cc1ccc(-c2ccc(-c3csc4[nH]c(=O)c(-c5ccncc5)c(O)c34)cc2)cc1 [Compound 24, 4-hydroxy-3-(4′-methylbiphenyl-4-yl)-5-pyridin-4-yl-6,7-dihydro-thieno[2,3-b]pyridin-6-one] | 191
11 | O=c1[nH]c2scc(-c3ccc(-c4ccccc4O)cc3)c2c(O)c1-c1ccncc1 [Compound 28, 4-hydroxy-3-(2′-hydroxybiphenyl-4-yl)-5-pyridin-4-yl-6,7-dihydro-thieno[2,3-b]pyridin-6-one] | 246
12 | O=c1[nH]c2scc(-c3ccc(-c4ccoc4)cc3)c2c(O)c1-c1ccncc1 [Compound 27, 3-[4-(3-furyl)phenyl]-4-hydroxy-5-pyridin-4-yl-6,7-dihydro-thieno[2,3-b]pyridin-6-one] | 199
13 | O=c1[nH]c2scc(-c3ccc(-c4ccoc4)cc3)c2c(O)c1-c1cccnc1 [Compound 38, 4-hydroxy-3-[4-(3-furyl)phenyl]-5-pyridin-3-yl-6,7-dihydro-thieno[2,3-b]pyridin-6-one] | 145
14 | O=c1[nH]c2scc(-c3ccc(-c4ccc(O)cc4)cc3)c2c(O)c1-c1ccncc1 [Compound 29, 4-hydroxy-3-(4′-hydroxybiphenyl-4-yl)-5-pyridin-4-yl-6,7-dihydro-thieno[2,3-b]pyridin-6-one] | 213
15 | O=c1[nH]c2scc(-c3ccc(-c4ccc(CO)cc4)cc3)c2c(O)c1-c1ccccc1 [Compound 59, 4-hydroxy-3-(4′-hydroxymethylbiphenyl-4-yl)-5-phenyl-6,7-dihydro-thieno[2,3-b]pyridin-6-one] | 128
16 | Cc1ccc(-c2ccc(-c3csc4[nH]c(=O)c(-c5cccnc5)c(O)c34)cc2)cc1 [Compound 37, 4-hydroxy-3-(4′-methylbiphenyl-4-yl)-5-pyridin-3-yl-6,7-dihydro-thieno[2,3-b]pyridin-6-one] | 168
17 | O=c1[nH]c2scc(-c3ccc(-c4cccnc4)cc3)c2c(O)c1-c1cccnc1 [Compound 40, 4-hydroxy-5-pyridin-3-yl-3-(4-pyridin-3-ylphenyl)-6,7-dihydro-thieno[2,3-b]pyridin-6-one] | 162
18 | COc1cc(-c2csc3[nH]c(=O)c(-c4ccccc4)c(O)c23)ccc1-c1ccc(F)cc1 [Compound 47, 3-(4′-fluoro-2-methoxybiphenyl-4-yl)-4-hydroxy-5-phenyl-6,7-dihydro-thieno[2,3-b]pyridin-6-one] | 118
19 | O=c1[nH]c2scc(-c3ccc(-c4ccc(O)cc4)c(O)c3)c2c(O)c1-c1ccccc1 [Compound 51, 4-hydroxy-3-(2,4′-hydroxybiphenyl-4-yl)-5-phenyl-6,7-dihydro-thieno[2,3-b]pyridin-6-one] | 384
20 | O=c1[nH]c2scc(-c3ccc(-c4ccc(F)cc4)cc3)c2c(O)c1-c1ccccc1 [Compound 13, 3-(4′-fluorobiphenyl-4-yl)-4-hydroxy-5-phenyl-6,7-dihydro-thieno[2,3-b]pyridin-6-one] | 206
21 | Cc1ccc(-c2ccc(-c3csc4[nH]c(=O)c(-c5ccccc5)c(O)c34)cc2O)cc1 [Compound 50, 4-hydroxy-3-(2-hydroxy-4′-methylbiphenyl-4-yl)-5-phenyl-6,7-dihydro-thieno[2,3-b]pyridin-6-one] | 421
22 | COc1cc(-c2csc3[nH]c(=O)c(-c4ccccc4)c(O)c23)ccc1-c1cccnc1 [Compound 56, 4-hydroxy-3-[3-methoxy-4-pyridin-3-ylphenyl]-5-phenyl-6,7-dihydro-thieno[2,3-b]pyridin-6-one] | 143
23 | COc1cc(F)ccc1-c1ccc(-c2csc3[nH]c(=O)c(-c4ccccc4)c(O)c23)cc1 [Compound 42, 3-(4′-fluoro-2′-methoxybiphenyl-4-yl)-4-hydroxy-5-phenyl-6,7-dihydro-thieno[2,3-b]pyridin-6-one] | 107
24 | O=c1[nH]c2scc(-c3ccc(-c4cccc(CO)c4)cc3)c2c(O)c1-c1ccccc1 [Compound 58, 4-hydroxy-3-(3′-hydroxymethylbiphenyl-4-yl)-5-phenyl-6,7-dihydro-thieno[2,3-b]pyridin-6-one] | 111
25 | O=c1[nH]c2scc(-c3ccc(-c4ccncc4)cc3O)c2c(O)c1-c1ccccc1 [Compound 57, 4-hydroxy-3-[2-hydroxy-4-pyridin-4ylphenyl]-5-phenyl-6,7-dihydro-thieno[2,3-b]pyridin-6-one] | 243
26 | N#Cc1ccc(-c2ccc(-c3csc4[nH]c(=O)c(-c5ccccc5)c(O)c34)cc2)cc1 [Compound 19, 3-(4′-cyanobiphenyl-4-yl)-4-hydroxy-5-phenyl-6,7-dihydro-thieno[2,3-b]pyridin-6-one] | 217
27 | O=c1[nH]c2scc(-c3ccc(-c4ccc(C(F)(F)F)cc4)cc3)c2c(O)c1-c1ccccc1 [Compound 16, 4-hydroxy-5-phenyl-3-(4′-trifluoromethylbiphenyl-4-yl)-6,7-dihydro-thieno[2,3-b]pyridin-6-one] | 101
28 | O=c1[nH]c2scc(-c3ccc(-c4ccc(O)cc4O)cc3)c2c(O)c1-c1ccccc1 [Compound 43, 4-hydroxy-3-(2′,4′-dihydroxybiphenyl-4-yl)-5-phenyl-6,7-dihydro-thieno[2,3-b]pyridin-6-one] | 139
